Toxic doses and inconclusive results are not listed.
Test system: L1210 leukemia ip in BDF1 mice, survival T/C
Test: NCI In Vivo Anticancer Drug Screen. Data for tumor model L1210 Leukemia (intraperitoneal) in B6D2F1 (BDF1) mice
Conditions: endpoint: mean survival time, higher = longer survival
In short: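 Antitumor effect is assessed in tumor-bearing animals. Survival in the compound arm is compared with a vehicle-dosed control arm and expressed as their quotient.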

[1] = dose: 100.0 mg/kg/injection, schedule: Q04DX003 (ip), vehicle: saline
[2] = dose: 100.0 mg/kg/injection, schedule: Q01DX009 (ip), vehicle: Klucel (hydroxypropylcellulose) (HPC)
[3] = dose: 100.0 mg/kg/injection, schedule: Q04DX003 (ip), vehicle: Klucel (hydroxypropylcellulose) (HPC)
[4] = dose: 200.0 mg/kg/injection, schedule: Q01DX009 (ip), vehicle: Klucel (hydroxypropylcellulose) (HPC)
[5] = dose: 200.0 mg/kg/injection, schedule: Q04DX003 (ip), vehicle: Klucel (hydroxypropylcellulose) (HPC)
[6] = dose: 400.0 mg/kg/injection, schedule: Q01DX009 (ip), vehicle: Klucel (hydroxypropylcellulose) (HPC)
[7] = dose: 400.0 mg/kg/injection, schedule: Q04DX003 (ip), vehicle: Klucel (hydroxypropylcellulose) (HPC)
[8] = dose: 100.0 mg/kg/injection, schedule: Q04DX003 (ip), vehicle: saline with Tween-80
[9] = dose: 200.0 mg/kg/injection, schedule: Q04DX003 (ip), vehicle: saline with Tween-80

For `Cc1cccnc1C`, the T/C (dose: 10.0 mg/kg/injection, schedule: Q01DX009 (ip), vehicle: saline) was 105 % of control, the T/C (dose: 20.0 mg/kg/injection, schedule: Q01DX009 (ip), vehicle: saline) was 111 % of control and the T/C (dose: 30.0 mg/kg/injection, schedule: Q01DX009 (ip), vehicle: saline) was 115 % of control. For the same compound, the T/C (dose: 40.0 mg/kg/injection, schedule: Q04DX003 (ip), vehicle: saline) was 112 % of control, the T/C (dose: 80.0 mg/kg/injection, schedule: Q04DX003 (ip), vehicle: saline) was 107 % of control and the T/C [1] was 100 % of control.
With `NC(CS)=NCC12CC3CC(CC(C3)C1)C2` the T/C (dose: 12.5 mg/kg/injection, schedule: Q04DX003 (ip), vehicle: carboxymethylcellulose (CMC)) was 93 % of control and the T/C (dose: 25.0 mg/kg/injection, schedule: Q04DX003 (ip), vehicle: carboxymethylcellulose (CMC)) was 98 % of control.
For `CC(C)CCO[Si](C)(C)CCl`, the T/C (dose: 50.0 mg/kg/injection, schedule: Q01DX001 (ip), vehicle: carboxymethylcellulose (CMC)) was 103 % of control, the T/C (dose: 100.0 mg/kg/injection, schedule: Q01DX001 (ip), vehicle: carboxymethylcellulose (CMC)) was 103 % of control and the T/C (dose: 200.0 mg/kg/injection, schedule: Q01DX001 (ip), vehicle: carboxymethylcellulose (CMC)) was 97 % of control. The T/C (dose: 400.0 mg/kg/injection, schedule: Q01DX001 (ip), vehicle: carboxymethylcellulose (CMC)) was 103 % of control.
With `CN(C)C(=O)Nc1cccc(OC(=O)NC2CCCCC2)c1` the T/C (dose: 100.0 mg/kg/injection, schedule: Q01DX001 (ip), vehicle: saline with Tween-80) was 97 % of control, the T/C (dose: 200.0 mg/kg/injection, schedule: Q01DX001 (ip), vehicle: saline with Tween-80) was 92 % of control and the T/C (dose: 400.0 mg/kg/injection, schedule: Q01DX001 (ip), vehicle: saline with Tween-80) was 87 % of control.
For `O=C1c2ccccc2C(=O)C1(Br)C(Br)c1ccccc1` (stereo not drawn), the T/C [2] was 102 % of control, the T/C [3] was 96 % of control and the T/C [4] was 101 % of control. For the same compound, the T/C [5] was 94 % of control, the T/C [6] was 93 % of control and the T/C [7] was 96 % of control.
For `CN1CCN=C1c1ccc(NC(=O)c2ccc(C(=O)Nc3ccc(C4=NCCN4C)cc3)c([N+](=O)[O-])c2)cc1`, the T/C (dose: 1.5 mg/kg/injection, schedule: Q01DX Z (ip), vehicle: carboxymethylcellulose (CMC)) was 96 % of control, the T/C (dose: 3.0 mg/kg/injection, schedule: Q01DX Z (ip), vehicle: carboxymethylcellulose (CMC)) was 101 % of control and the T/C (dose: 6.0 mg/kg/injection, schedule: Q01DX Z (ip), vehicle: carboxymethylcellulose (CMC)) was 90 % of control.
For `O=[N+]([O-])c1ccc(-c2ncc3cnccn23)cc1`, the T/C (dose: 100.0 mg/kg/injection, schedule: Q01DX009 (ip), vehicle: saline) was 90 % of control, the T/C [1] was 100 % of control and the T/C (dose: 200.0 mg/kg/injection, schedule: Q01DX009 (ip), vehicle: saline) was 90 % of control. The T/C (dose: 200.0 mg/kg/injection, schedule: Q04DX003 (ip), vehicle: saline) was 93 % of control, the T/C (dose: 400.0 mg/kg/injection, schedule: Q01DX009 (ip), vehicle: saline) was 91 % of control and the T/C (dose: 400.0 mg/kg/injection, schedule: Q04DX003 (ip), vehicle: saline) was 95 % of control.
For `COC(=O)C(Br)C(OC)c1ccccc1` (stereo not drawn), the T/C [2] was 96 % of control, the T/C [4] was 96 % of control and the T/C [6] was 98 % of control.
`COC(=O)/C(Cl)=C(\Cl)C(=O)OC` was tested, and the T/C (dose: 100.0 mg/kg/injection, schedule: Q01DX009 (ip), vehicle: saline with Tween-80) was 95 % of control, the T/C [3] was 96 % of control and the T/C [8] was 102 % of control. For the same compound, the T/C [9] was 107 % of control.
For `Cc1cccc(C)c1NS(=O)(=O)c1ccc(Cl)cc1`, the T/C [2] was 107 % of control, the T/C [3] was 101 % of control and the T/C [4] was 88 % of control. The T/C [5] was 102 % of control, the T/C [6] was 95 % of control and the T/C [7] was 98 % of control.
For `CN(Cc1cnc2nc(N)nc(N)c2n1)c1c(F)cc(C(=O)NC(CCC(=O)O)C(=O)O)cc1F` (stereo not drawn), the T/C (dose: 1.5 mg/kg/injection, schedule: Q01DX009 (ip), vehicle: sodium bicarbonate) was 114 % of control and the T/C (dose: 12.0 mg/kg/injection, schedule: Q01DX009 (ip), vehicle: sodium bicarbonate) was 154 % of control.
For `COc1cc(Br)c(CC2=[N+](C)CCc3cc(OC)c(OCc4ccccc4)cc32)cc1OC`, the T/C [8] was 98 % of control, the T/C [9] was 101 % of control and the T/C (dose: 400.0 mg/kg/injection, schedule: Q04DX003 (ip), vehicle: saline with Tween-80) was 101 % of control.
